Drawing on PubChem BioAssay AID336 (DTP/NCI, 2004), this text covers T/C for 15 compounds.

This experiment deals with BDF1 mice, P388/VCR leukemia ip, median survival T/C. Nature of the experiment: NCI In Vivo Anticancer Drug Screen. Data for tumor model P388 Leukemia resistant to Vincristine; NSC 67574 (intraperitoneal) in B6D2F1 (BDF1) mice. The following applies: endpoint: median survival time, higher = longer survival. The method, then: The antitumor activity of compounds was measured in mice bearing transplantable tumors. Survival or tumor size were measured and the results are expressed as the measurement made in the treated group (T) divided by the measurement made in the vehicle treated control group (C). The tumor model used in this assay is P388 Leukemia resistant to Vincristine; NSC 67574 (intraperitoneal) in B6D2F1 (BDF1) mice

Setting [1] is: dose: 500.0 micrograms/kg/injection, schedule: Q04DX003 (ip), vehicle: saline.
The mark [2] stands for this setting: dose: 648.0 micrograms/kg/injection, schedule: Q04DX003 (ip), vehicle: saline.
[3] abbreviates: dose: 1000.0 micrograms/kg/injection, schedule: Q04DX003 (ip), vehicle: saline.
Where [4] appears, read: dose: 1080.0 micrograms/kg/injection, schedule: Q04DX003 (ip), vehicle: saline.
Setting [5] is: dose: 1800.0 micrograms/kg/injection, schedule: Q04DX003 (ip), vehicle: saline.
Where [6] appears, read: dose: 2000.0 micrograms/kg/injection, schedule: Q04DX003 (ip), vehicle: saline.
[7] abbreviates: dose: 25.0 mg/kg/injection, schedule: Q01DX010 (ip), vehicle: saline.
Where [8] appears, read: dose: 50.0 mg/kg/injection, schedule: Q01DX010 (ip), vehicle: saline.
The mark [9] stands for this setting: dose: 18.0 mg/kg/injection, schedule: Q01DX010 (ip), vehicle: saline.
[10] abbreviates: dose: 27.0 mg/kg/injection, schedule: Q01DX010 (ip), vehicle: saline.
Where [11] appears, read: dose: 4000.0 micrograms/kg/injection, schedule: Q04DX003 (ip), vehicle: saline.

Molecules are shown by their SMILES. Several values for one entry are separate records, joined by “and”; a condition that tells them apart may be missing. Equal entries are not always repeated. Inconclusive results and toxic doses are left out.

Turning to `CC[C@]1(O)C[C@H]2CN(CCc3c([nH]c4ccccc34)[C@@](C(=O)OC)(c3cc4c(cc3OC)N(C=O)[C@H]3[C@@](O)(C(=O)OC)[C@H](OC(C)=O)[C@]5(CC)C=CCN6CC[C@]43[C@@H]65)C2)C1`, the T/C is, setting by setting: (dose: 0.03 mg/kg/injection, schedule: Q01DX010 (ip), vehicle: saline) 110 % of control; (dose: 0.06 mg/kg/injection, schedule: Q01DX010 (ip), vehicle: saline) 113 % of control; (dose: 0.12 mg/kg/injection, schedule: Q01DX010 (ip), vehicle: saline) 114 % of control; (dose: 0.36 mg/kg/injection, schedule: Q04DX003 (ip), vehicle: saline) 106 % of control; (dose: 0.6 mg/kg/injection, schedule: Q04DX003 (ip), vehicle: saline) 109 % of control; (dose: 1.0 mg/kg/injection, schedule: Q04DX003 (ip), vehicle: saline) 113 % of control. Moreover, the T/C (dose: 1.67 mg/kg/injection, schedule: Q04DX003 (ip), vehicle: saline) is 107 % of control; the T/C (dose: 250.0 micrograms/kg/injection, schedule: Q04DX003 (ip), vehicle: saline) was 111 % of control; the T/C (dose: 324.0 micrograms/kg/injection, schedule: Q04DX003 (ip), vehicle: saline) was 98 % of control and 103 % of control; the T/C (dose: 360.0 micrograms/kg/injection, schedule: Q04DX003 (ip), vehicle: saline) is 101 % of control and 104 % of control; the T/C (dose: 389.0 micrograms/kg/injection, schedule: Q04DX003 (ip), vehicle: saline) was 109 % of control; the T/C (dose: 432.0 micrograms/kg/injection, schedule: Q04DX003 (ip), vehicle: saline) was 106 % of control. Also, the T/C was 107 % of control under setting [1]; 99 % of control and 104 % of control (dose: 540.0 micrograms/kg/injection, schedule: Q04DX003 (ip), vehicle: saline); 99 % of control and 103 % of control (dose: 600.0 micrograms/kg/injection, schedule: Q04DX003 (ip), vehicle: saline); 118 % of control under setting [2]; 104 % of control (dose: 720.0 micrograms/kg/injection, schedule: Q04DX003 (ip), vehicle: saline); 104 % of control and 111 % of control (dose: 900.0 micrograms/kg/injection, schedule: Q04DX003 (ip), vehicle: saline). In addition, the T/C reads like this: under setting [3], 95 % of control and 104 % of control and 108 % of control; under setting [4], 113 % of control; (dose: 1200.0 micrograms/kg/injection, schedule: Q04DX003 (ip), vehicle: saline) 107 % of control; (dose: 1500.0 micrograms/kg/injection, schedule: Q04DX003 (ip), vehicle: saline) 99 % of control and 101 % of control; (dose: 1670.0 micrograms/kg/injection, schedule: Q04DX003 (ip), vehicle: saline) 100 % of control; under setting [5], 115 % of control. Further, under setting [6], the T/C is 108 % of control and 111 % of control.
For `CC(=O)Nc1ccc2nc3ccc(NC(C)=O)cc3[n+](-c3ccccc3)c2c1`, the T/C reads like this: under setting [7], 91 % of control; under setting [8], 87 % of control.
For `CC1CN1P(=S)(N1CC1C)N1CC1C` (stereo unspecified), the T/C is, setting by setting: (dose: 1.25 mg/kg/injection, schedule: Q01DX010 (ip), vehicle: saline) 93 % of control; (dose: 2.5 mg/kg/injection, schedule: Q01DX010 (ip), vehicle: saline) 96 % of control and 100 % of control; (dose: 5.0 mg/kg/injection, schedule: Q01DX010 (ip), vehicle: saline) 100 % of control; (dose: 10.0 mg/kg/injection, schedule: Q01DX010 (ip), vehicle: saline) 93 % of control and 107 % of control.
`O=C(Nc1ccc(NC2=NCCN2)cc1)c1ccc(C(=O)Nc2ccc(NC3=NCCN3)cc2)cc1`: the T/C is, setting by setting: (dose: 2.0 mg/kg/injection, schedule: Q01DX010 (ip), vehicle: saline) 121 % of control; (dose: 4.0 mg/kg/injection, schedule: Q01DX010 (ip), vehicle: saline) 192 % of control; (dose: 8.0 mg/kg/injection, schedule: Q01DX010 (ip), vehicle: saline) 171 % of control and 211 % of control.
For `Nc1nc(N)c2nc(CNc3ccc(C(=O)NC(CCC(=O)O)C(=O)O)cc3)cnc2n1` (stereo unspecified), the T/C (dose: 25.0 micrograms/kg/injection, schedule: Q01DX010 (ip), vehicle: other) was 118 % of control; the T/C (dose: 50.0 micrograms/kg/injection, schedule: Q01DX010 (ip), vehicle: other) was 114 % of control; the T/C (dose: 200.0 micrograms/kg/injection, schedule: Q01DX010 (ip), vehicle: other) is 166 % of control and 175 % of control.
As for `CC(=O)O[C@H]1C(=O)[C@@]2(C)[C@H]([C@H](OC(=O)c3ccccc3)[C@]3(O)C[C@H](OC(=O)[C@H](O)[C@@H](NC(=O)c4ccccc4)c4ccccc4)C(C)=C1C3(C)C)[C@]1(OC(C)=O)CO[C@@H]1C[C@@H]2O`, the T/C is, setting by setting: (dose: 21.6 mg/kg/injection, schedule: Q04DX003 (ip), vehicle: Klucel (hydroxypropylcellulose) (HPC)) 98 % of control; (dose: 36.0 mg/kg/injection, schedule: Q04DX003 (ip), vehicle: Klucel (hydroxypropylcellulose) (HPC)) 93 % of control; (dose: 60.0 mg/kg/injection, schedule: Q04DX003 (ip), vehicle: Klucel (hydroxypropylcellulose) (HPC)) 87 % of control.
On to `COc1cccc2c1C(=O)c1c(O)c3c(c(O)c1C2=O)C[C@@](O)(C(C)=O)C[C@@H]3OC1CC(N)C(O)C(C)O1` (stereo partly specified), for which the T/C is, setting by setting: (dose: 3.6 mg/kg/injection, schedule: Q04DX003 (ip), vehicle: water) 110 % of control; (dose: 6.0 mg/kg/injection, schedule: Q04DX003 (ip), vehicle: water) 104 % of control; (dose: 8.0 mg/kg/injection, schedule: Q04DX003 (ip), vehicle: water) 114 % of control.
Turning to `CO[C@@]12[C@H](COC(N)=O)C3=C(C(=O)C(C)=C(N)C3=O)N1C[C@@H]1N[C@@H]12`, the T/C (dose: 1.08 mg/kg/injection, schedule: Q04DX003 (ip), vehicle: saline) was 184 % of control; the T/C (dose: 1.8 mg/kg/injection, schedule: Q04DX003 (ip), vehicle: saline) is 221 % of control; the T/C (dose: 3.0 mg/kg/injection, schedule: Q04DX003 (ip), vehicle: saline) is 184 % of control; the T/C (dose: 5.0 mg/kg/injection, schedule: Q04DX003 (ip), vehicle: saline) was 124 % of control.
Regarding `CN(C)/N=N/c1nc[nH]c1C(N)=O`, the T/C was 100 % of control and 116 % of control under setting [7]; 107 % of control under setting [8]; 107 % of control and 116 % of control (dose: 200.0 mg/kg/injection, schedule: Q01DX010 (ip), vehicle: saline).
As to `O=C(Nc1ccc(NC(=O)Nc2ccc(C3=NCCN3)cc2)cc1)Nc1ccc(C2=NCCN2)cc1`, the T/C by setting is: (dose: 250.0 mg/kg/injection, schedule: Q01DX010 (ip), vehicle: saline) 150 % of control; (dose: 375.0 mg/kg/injection, schedule: Q01DX010 (ip), vehicle: saline) 154 % of control.
As to `COC(=O)C[C@](O)(CCC(C)(C)O)C(=O)O[C@@H]1C(OC)=C[C@]23CCCN2CCc2cc4c(cc2[C@H]13)OCO4`, the T/C (dose: 0.25 mg/kg/injection, schedule: Q01DX009 (ip), vehicle: saline) was 92 % of control; the T/C (dose: 0.5 mg/kg/injection, schedule: Q01DX009 (ip), vehicle: saline) is 100 % of control; the T/C (dose: 1.0 mg/kg/injection, schedule: Q01DX009 (ip), vehicle: saline) is 88 % of control.
For `O=C(Nc1ccc(C2=NCCN2)cc1)c1ccc(NC(=O)c2ccc(C3=NCCN3)cc2)cc1`, the T/C is, setting by setting: under setting [9], 104 % of control; under setting [10], 108 % of control; (dose: 40.0 mg/kg/injection, schedule: Q01DX010 (ip), vehicle: saline) 113 % of control; (dose: 60.0 mg/kg/injection, schedule: Q01DX010 (ip), vehicle: saline) 113 % of control.
Take `CCC1(O)CC2CN(CCc3c([nH]c4ccccc34)C(C(=O)OC)(c3cc4c(cc3OC)N(C)C3C(O)(C(=O)NCCO)C(O)C5(CC)C=CCN6CCC43C65)C2)C1` (stereo unspecified): the T/C is 107 % of control under setting [1], 106 % of control under setting [3], 105 % of control under setting [6] and 108 % of control under setting [11].
For `CCC1(O)CC2CN(CCc3c([nH]c4ccccc34)C(C(=O)OC)(c3cc4c(cc3OC)N(C)C3C(O)(C(N)=O)C(O)C5(CC)C=CCN6CCC43C65)C2)C1` (stereo unspecified) (tested in a mixture with another compound), the T/C under setting [1] is 107 % of control; the T/C under setting [2] is 106 % of control; the T/C under setting [3] is 118 % of control; the T/C under setting [4] was 100 % of control; the T/C under setting [5] was 98 % of control; the T/C under setting [11] is 110 % of control.
Regarding `CN=C(NC)c1ccc(NC(=O)c2ccc(C(=O)Nc3ccc(C(=NC)NC)cc3)c(Cl)c2)cc1`, the T/C is 117 % of control under setting [9] and 95 % of control under setting [10].
